System: DYT-TOR1A MEF EVs
Experiment: Quantitative LC-MS/MS proteomics of EVs from drug-treated DYT-TOR1A MEF cultures (ritonavir, salubrinal)
Format: cell-based, mouse
Set-up: key to RTV Corrective Direction / RTV Corrective Direction, Grwd1 / RTV Corrective Direction, Srrm2 / RTV Corrective Direction, Rbm17 / RTV Corrective Direction, Dcaf8 / RTV Corrective Direction, Edil3 / RTV Corrective Direction, Timp3 / RTV Corrective Direction, Heatr3 / RTV Corrective Direction, Brd4 / RTV Corrective Direction, P3h4 / RTV Corrective Direction, Pacsin3 / RTV Corrective Direction, Naa50 / RTV Corrective Direction, Lpar6 / RTV Corrective Direction, Ndrg1 / RTV Corrective Direction, Kntc1 / RTV Corrective Direction, Cdk11b / RTV Corrective Direction, Sumo1 / RTV Corrective Direction, Lsm4 / RTV Corrective Direction, Hmga2 / RTV Corrective Direction, Cstf1 / RTV Corrective Direction, Tes / RTV Corrective Direction, Sbno1 / RTV Corrective Direction, Unc119b / RTV Corrective Direction, Cfdp1 / RTV Corrective Direction, Sec61b: YES = protein abundance effect opposite to DYT/WT

CC(C)c1nc(CN(C)C(=O)N[C@H](C(=O)N[C@@H](Cc2ccccc2)C[C@H](O)[C@H](Cc2ccccc2)NC(=O)OCc2cncs2)C(C)C)cs1 [ritonavir]
Absolute Cohen's d Sum (Geno + RTV), Brd4 (EV protein Brd4 (Q9ESU6)): 6.97 | DYT + RTV/DYT Cohen's d, Brd4 (EV protein Brd4 (Q9ESU6)): 3.33 | RTV Corrective Direction, Brd4 (EV protein Brd4 (Q9ESU6), DYT + RTV vs DYT): YES | Absolute Cohen's d Sum (Geno + RTV), Cdk11b (EV protein Cdk11b (P24788)): 6.07 | DYT + RTV/DYT Cohen's d, Cdk11b (EV protein Cdk11b (P24788)): 2.84 | RTV Corrective Direction, Cdk11b (EV protein Cdk11b (P24788), DYT + RTV vs DYT): YES | Absolute Cohen's d Sum (Geno + RTV), Cfdp1 (EV protein Cfdp1 (O88271)): 4.50 | DYT + RTV/DYT Cohen's d, Cfdp1 (EV protein Cfdp1 (O88271)): 1.87 | RTV Corrective Direction, Cfdp1 (EV protein Cfdp1 (O88271), DYT + RTV vs DYT): YES | Absolute Cohen's d Sum (Geno + RTV), Cstf1 (EV protein Cstf1 (Q99LC2)): 4.79 | DYT + RTV/DYT Cohen's d, Cstf1 (EV protein Cstf1 (Q99LC2)): 1.81 | RTV Corrective Direction, Cstf1 (EV protein Cstf1 (Q99LC2), DYT + RTV vs DYT): YES | Absolute Cohen's d Sum (Geno + RTV), Ctdsp1 (EV protein Ctdsp1 (P58466)): 9.37 | DYT + RTV/DYT Cohen's d, Ctdsp1 (EV protein Ctdsp1 (P58466)): −0.28 | DYT + RTV/DYT Cohen's d, Dcaf8 (EV protein Dcaf8): 3.49 | Absolute Cohen's d Sum (Geno + RTV), Dcaf8 (EV protein Dcaf8 (Q8N7N5)): 7.70 | RTV Corrective Direction, Dcaf8 (EV protein Dcaf8 (Q8N7N5), DYT + RTV vs DYT): YES | Absolute Cohen's d Sum (Geno + RTV), Dnajc7 (EV protein Dnajc7 (Q9QYI3)): 4.50 | DYT + RTV/DYT Cohen's d, Dnajc7 (EV protein Dnajc7 (Q9QYI3)): −0.67 | Absolute Cohen's d Sum (Geno + RTV), Drg1 (EV protein Drg1 (P32233)): 4.38 | DYT + RTV/DYT Cohen's d, Drg1 (EV protein Drg1 (P32233)): −1.06 | Absolute Cohen's d Sum (Geno + RTV), Edil3 (EV protein Edil3 (O35474)): 7.67 | DYT + RTV/DYT Cohen's d, Edil3 (EV protein Edil3 (O35474)): 4.51 | RTV Corrective Direction, Edil3 (EV protein Edil3 (O35474), DYT + RTV vs DYT): YES | Absolute Cohen's d Sum (Geno + RTV), Grwd1 (EV protein Grwd1 (Q810D6)): 8.06 | DYT + RTV/DYT Cohen's d, Grwd1 (EV protein Grwd1 (Q810D6)): 2.65 | RTV Corrective Direction, Grwd1 (EV protein Grwd1 (Q810D6), DYT + RTV vs DYT): YES | Absolute Cohen's d Sum (Geno + RTV), Heatr3 (EV protein Heatr3 (Q8BQM4)): 7.08 | DYT + RTV/DYT Cohen's d, Heatr3 (EV protein Heatr3 (Q8BQM4)): 3.09 | RTV Corrective Direction, Heatr3 (EV protein Heatr3 (Q8BQM4), DYT + RTV vs DYT): YES | Absolute Cohen's d Sum (Geno + RTV), Hmga2 (EV protein Hmga2 (P52927)): 5.34 | DYT + RTV/DYT Cohen's d, Hmga2 (EV protein Hmga2 (P52927)): 1.97 | RTV Corrective Direction, Hmga2 (EV protein Hmga2 (P52927), DYT + RTV vs DYT): YES | Absolute Cohen's d Sum (Geno + RTV), Kntc1 (EV protein Kntc1 (Q8C3Y4)): 6.09 | DYT + RTV/DYT Cohen's d, Kntc1 (EV protein Kntc1 (Q8C3Y4)): 2.48 | RTV Corrective Direction, Kntc1 (EV protein Kntc1 (Q8C3Y4), DYT + RTV vs DYT): YES | Absolute Cohen's d Sum (Geno + RTV), Lpar6 (EV protein Lpar6 (Q8BMC0)): 6.22 | DYT + RTV/DYT Cohen's d, Lpar6 (EV protein Lpar6 (Q8BMC0)): −3.03 | RTV Corrective Direction, Lpar6 (EV protein Lpar6 (Q8BMC0), DYT + RTV vs DYT): YES | Absolute Cohen's d Sum (Geno + RTV), Lsm4 (EV protein Lsm4 (Q9QXA5)): 5.40 | DYT + RTV/DYT Cohen's d, Lsm4 (EV protein Lsm4 (Q9QXA5)): 2.49 | RTV Corrective Direction, Lsm4 (EV protein Lsm4 (Q9QXA5), DYT + RTV vs DYT): YES | Absolute Cohen's d Sum (Geno + RTV), Maea (EV protein Maea (Q4VC33)): 3.96 | DYT + RTV/DYT Cohen's d, Maea (EV protein Maea (Q4VC33)): −0.37 | Absolute Cohen's d Sum (Geno + RTV), Myo1e (EV protein Myo1e (E9Q634)): 5.88 | DYT + RTV/DYT Cohen's d, Myo1e (EV protein Myo1e (E9Q634)): −1.46 | Absolute Cohen's d Sum (Geno + RTV), Naa50 (EV protein Naa50 (Q6PGB6)): 6.3 | DYT + RTV/DYT Cohen's d, Naa50 (EV protein Naa50 (Q6PGB6)): 1.96 | RTV Corrective Direction, Naa50 (EV protein Naa50 (Q6PGB6), DYT + RTV vs DYT): YES | Absolute Cohen's d Sum (Geno + RTV), Ndrg1 (EV protein Ndrg1 (Q62433)): 6.19 | DYT + RTV/DYT Cohen's d, Ndrg1 (EV protein Ndrg1 (Q62433)): 2.70 | RTV Corrective Direction, Ndrg1 (EV protein Ndrg1 (Q62433), DYT + RTV vs DYT): YES | Absolute Cohen's d Sum (Geno + RTV), P3h4 (EV protein P3h4 (Q8K2B0)): 6.88 | DYT + RTV/DYT Cohen's d, P3h4 (EV protein P3h4 (Q8K2B0)): 1.62 | RTV Corrective Direction, P3h4 (EV protein P3h4 (Q8K2B0), DYT + RTV vs DYT): YES | Absolute Cohen's d Sum (Geno + RTV), Pacsin3 (EV protein Pacsin3 (Q99JB8)): 6.45 | DYT + RTV/DYT Cohen's d, Pacsin3 (EV protein Pacsin3 (Q99JB8)): −3.41 | RTV Corrective Direction, Pacsin3 (EV protein Pacsin3 (Q99JB8), DYT + RTV vs DYT): YES | Absolute Cohen's d Sum (Geno + RTV), Pcdh19 (EV protein Pcdh19 (Q80TF3)): 7.74 | DYT + RTV/DYT Cohen's d, Pcdh19 (EV protein Pcdh19 (Q80TF3)): −0.30 | Absolute Cohen's d Sum (Geno + RTV), Plpp3 (EV protein Plpp3 (Q99JY8)): 4.97 | DYT + RTV/DYT Cohen's d, Plpp3 (EV protein Plpp3 (Q99JY8)): 0.51 | Absolute Cohen's d Sum (Geno + RTV), Rbm17 (EV protein Rbm17 (Q8JZX4)): 7.77 | DYT + RTV/DYT Cohen's d, Rbm17 (EV protein Rbm17 (Q8JZX4)): 2.38 | RTV Corrective Direction, Rbm17 (EV protein Rbm17 (Q8JZX4), DYT + RTV vs DYT): YES | Absolute Cohen's d Sum (Geno + RTV), Sbno1 (EV protein Sbno1 (Q689Z5)): 4.67 | DYT + RTV/DYT Cohen's d, Sbno1 (EV protein Sbno1 (Q689Z5)): 1.29 | RTV Corrective Direction, Sbno1 (EV protein Sbno1 (Q689Z5), DYT + RTV vs DYT): YES | Absolute Cohen's d Sum (Geno + RTV), Sec61b (EV protein Sec61b (Q9CQS8)): 3.57 | DYT + RTV/DYT Cohen's d, Sec61b (EV protein Sec61b (Q9CQS8)): 0.27 | RTV Corrective Direction, Sec61b (EV protein Sec61b (Q9CQS8), DYT + RTV vs DYT): YES | Absolute Cohen's d Sum (Geno + RTV), Sh3bp4 (EV protein Sh3bp4 (Q921I6)): 4.75 | DYT + RTV/DYT Cohen's d, Sh3bp4 (EV protein Sh3bp4 (Q921I6)): −0.91 | Absolute Cohen's d Sum (Geno + RTV), Srrm2 (EV protein Srrm2 (Q8BTI8)): 7.87 | DYT + RTV/DYT Cohen's d, Srrm2 (EV protein Srrm2 (Q8BTI8)): 3.51 | RTV Corrective Direction, Srrm2 (EV protein Srrm2 (Q8BTI8), DYT + RTV vs DYT): YES | Absolute Cohen's d Sum (Geno + RTV), Sumo1 (EV protein Sumo1 (P63166)): 5.99 | DYT + RTV/DYT Cohen's d, Sumo1 (EV protein Sumo1 (P63166)): 2.28 | RTV Corrective Direction, Sumo1 (EV protein Sumo1 (P63166), DYT + RTV vs DYT): YES | Absolute Cohen's d Sum (Geno + RTV), Tes (EV protein Tes (P47226)): 4.69 | DYT + RTV/DYT Cohen's d, Tes (EV protein Tes (P47226)): 0.20 | RTV Corrective Direction, Tes (EV protein Tes (P47226), DYT + RTV vs DYT): YES | Absolute Cohen's d Sum (Geno + RTV), Timp3 (EV protein Timp3 (P39876)): 7.42 | DYT + RTV/DYT Cohen's d, Timp3 (EV protein Timp3 (P39876)): −2.93 | RTV Corrective Direction, Timp3 (EV protein Timp3 (P39876), DYT + RTV vs DYT): YES | Absolute Cohen's d Sum (Geno + RTV), Tspan7 (EV protein Tspan7 (Q62283)): 7.37 | DYT + RTV/DYT Cohen's d, Tspan7 (EV protein Tspan7 (Q62283)): −2.89 | Absolute Cohen's d Sum (Geno + RTV), Unc119b (EV protein Unc119b (Q8C4B4)): 4.63 | DYT + RTV/DYT Cohen's d, Unc119b (EV protein Unc119b (Q8C4B4)): 2.22 | RTV Corrective Direction, Unc119b (EV protein Unc119b (Q8C4B4), DYT + RTV vs DYT): YES | Pearson's r between genotype and ritonavir effects on EV protein abundance (entire proteome, n=1974): −0.74 | Pearson's r between genotype and ritonavir effects on EV protein abundance (putative DYT biomarker subset, n=363): −0.78 | additional human plasma EV protein homologs modulated in a corrective direction in mouse DYT1 EV experiment (MEF), not reaching significance (p<0.05) (ritonavir): 687 | all EV proteins with log 2 fold change>0 (ritonavir 20 μM, 24 h): 1372/1974 | number of significant hits among 363 proteins relative to chance (α=0.05) (ritonavir 20 μM, 24 h): 12 times | overall effect on the DYT-TOR1A MEF EV proteome (ritonavir 20 μM, 24 h): broad corrective effect | significantly modified EV proteins with log 2 fold change>0 (ritonavir 20 μM, 24 h): 508/582 | overall effect on the DYT-TOR1A MEF EV proteome (ritonavir 20 μM, 24 h, listed as Ritonavir): proteome-wide corrective effects | hierarchical clustering of EV samples on 363 genotype biomarker proteins (ritonavir-treated DYT-TOR1A EV samples): clustered more closely with WT than DYT-TOR1A samples

Source: patent US20260266848A1, “COMPOSITIONS AND METHODS FOR DIAGNOSING AND TREATING DYSTONIA” (Duke University, priority 2023, published 2026)
